Assay results from paper PMC7663184, “Vitamin B3-Based Biologically Active Compounds as Inhibitors of Human Cholinesterases” (International Journal of Molecular Sciences, 2020).
Entries after “also recorded” stand apart in the source; their conditions may differ.

Assays:
[1] = Cytotoxicity assay (MTS) on SH-SY5Y cells; format: cell-based; conditions: human; SH-SY5Y cells, MTS assay, 6.25–800 µM, mean of at least three experiments with standard error
Procedure: (§1) SH-SY5Y were grown in DMEM F12 (Sigma-Aldrich, Steinheim, Germany) supplemented with 15% (v/v) fetal bovine serum (Sigma-Aldrich, Steinheim, Germany), 1% (v/v) non-essential amino acids (NEAA, Sigma-Aldrich, Steinheim, Germany) and 1% (v/v) antibiotics solution Penicilin-Streptomycin (Sigma-Aldrich, Steinheim, Germany) while HEK293 were grown in EMEM (Sigma-Aldrich, Steinheim, Germany) supplemented with 10% (v/v) fetal bovine serum (Sigma-Aldrich, Steinheim, Germany), 1% (v/v) non-essential amino acids (NEAA, Sigma-Aldrich, Steinheim, Germany) and 1% (v/v) antibiotics solution Penicilin-Streptomycin (Sigma-Aldrich, Steinheim, Germany).
(§2) After cultivation, the cells were detached using 0.25% Trypsin/EDTA solution (Sigma-Aldrich, St. Louis, MO, USA), re-suspended and seeded at density of 20,000 cells/well in 96-well plates for experiments. The assay in 96-well was performed in 120 µL/well media volume. […] The procedure followed a previously described protocol and the manufacturer’s recommendations. […] Data was evaluated from at least two or three experiments (each in duplicate or triplicate) using IC50 nonlinear fit equation predefined in Prism6 software and presented as percentage of inhibition to control untreated cells.

[2] = Cytotoxicity assay (MTS) on HEK293 cells; format: cell-based
Procedure: as §1, §2

human AChE = human AChE (Homo sapiens, UniProt P22303); experiment: AChE reversible inhibition (Ellman's method, Hunter–Downs evaluation); format: biochemical; conditions: for Ki: human erythrocyte AChE, ATCh substrate, 0.1 M sodium phosphate buffer pH 7.4, at least three experiments, read-out: Ki ± SE AChE; for Ki (AChE)/Ki (BChE): selectivity ratio of measured Ki values
Text: The determined BChE phenotype was UU (usual).

human BChE = human BChE (Homo sapiens, UniProt P06276); experiment: BChE reversible inhibition (Ellman's method, Hunter–Downs evaluation)
SH-SY5Y cells = experiment: Cytotoxicity assay (MTS) on SH-SY5Y cells; format: cell-based; conditions: 1-, 4- and 24-h treatment
Procedure: as §1, §2

HEK293 cells = experiment: Cytotoxicity assay (MTS) on HEK293 cells; format: cell-based; conditions: for time dependence of cytotoxicity on HEK293 cells: 1-, 4- and 24-h treatment
Procedure: as §1, §2

phospho-AMPK (Thr172) = experiment: Intracellular signalling by Western blot: phospho-AMPK; format: cell-based, human; conditions: serum-starved HEK293 cells, 100 μM, 10 or 30 min, vs. Basal
Procedure: (§3) Intracellular signalling in the presence of the selected nicotinamide derivative was evaluated on HEK293 cells. To enhance attachment of HEK293 cells, 12-well plates were aseptically pre-coated with poly-lysin (50 µg/mL, 0.5 mL/well). After 1-h incubation, the solution was removed, surface rinsed with sterile demineralized water and allowed to dry for 1 h. HEK293 cells were seeded at a density of 300,000 cells/well in DMEM (1 g/L glucose, Gibco, Paisley, UK) supplemented with 10% (v/v) FBS (Gibco, Paisley, UK) and 1% (v/v) Pen-Strep (Gibco, Paisley, UK). The next day (after 20 h) the medium was replaced with DMEM without additions. The cells were serum-starved for 4 h. During the last 10 and 30 min, the cells were treated with 100 μM 3, 4, 5 or 8. Basal (control) samples were treated with vehicle (DMSO) for 30 min. At the end of the experiment, cells were washed with ice-cold PBS and lysed in Laemmli buffer (62.5 mM Tris-HCl (pH 6.8), 2% (w/v) sodium dodecyl sulfate (SDS), 10% (w/v) glycerol, 5% (v/v) 2-mercaptoethanol, 0.002% (w/v) bromophenol blue). The proteins were resolved with SDS-PAGE (precasted 4–12% polyacrylamide gels, Bio-Rad, CA, USA) and transferred to the PVDF membrane (Merck Millipore, Darmstadt, Germany) with wet electrotransfer using Criterion system and Bis-Tris gradient gels (Bio-rad, CA, USA). After the transfer, the membranes were stained with Ponceau S (0.1% (w/v) in 5% (v/v) acetic acid) to evaluate uniformity of sample loading and efficiency of transfer. The membranes were then blocked with 7.5% (w/v) dry milk in Tris-buffered saline with Tween 20 (TBST: 20 mM Tris, 150 mM NaCl, 0.02% (v/v) Tween 20, pH 7.5) for 1 h at room temperature. After blocking, the membranes were incubated with the primary antibody in the primary antibody buffer (20 mM Tris, 150 mM NaCl, pH 7.5, 0.1% (w/v) BSA and 0.1% (w/v) sodium azide) overnight at 4 °C and then with the secondary antibody-horseradish peroxidase conjugate (Bio-Rad, CA, USA) in TBST with 5% (w/v) dry milk for 1 h at room temperature. Finally, the membranes were incubated with enhanced chemiluminescence (ECL) reagent (Bio-Rad, CA, USA) and then immunolabelled proteins were visualized on X-ray films. Films were scanned with GS-800 Densitometer (Bio-Rad, CA, USA) and analysed with Quantity One 1-D 4.6.8 Analysis Software (Bio-Rad, CA, USA). […] Target proteins were detected using primary antibodies against phospho-Akt (Ser473, Cell Signaling #4060, Netherlands) phospho-ERK1/2 (Thr202/Tyr204, Cell Signaling #4370, Netherlands), phospho-S6 ribosomal protein (Ser235/236, Cell Signaling #2211, Netherlands), phospho-AMPK (Thr172, Cell Signaling #2535, Netherlands), phospho-acetyl-CoA carboxylase (Ser79, Cell Signaling #3661, Netherlands) and HIF-1α (Novus Biologicals NB100–449, CO, USA).

[3] = tested on: phospho-S6RP (Ser235/236); experiment: Intracellular signalling by Western blot: phospho-S6RP; format: cell-based, human; conditions: serum-starved HEK293 cells, 100 μM, 10 or 30 min, vs. Basal
Procedure: as §3

[4] = tested on: phospho-ERK1/2 (Thr202/Tyr204); experiment: Intracellular signalling by Western blot: phospho-ERK1/2; format: cell-based, human; conditions: serum-starved HEK293 cells, 100 μM, 10 or 30 min, vs. Basal
Procedure: as §3

phospho-ACC (Ser79) = experiment: Intracellular signalling by Western blot: phospho-ACC; format: cell-based, human; conditions: serum-starved HEK293 cells, 100 μM, 10 or 30 min, vs. Basal
Procedure: as §3

phospho-Akt (Ser473) = experiment: Intracellular signalling by Western blot: phospho-Akt; format: cell-based, human; conditions: serum-starved HEK293 cells, 100 μM, 10 or 30 min, vs. Basal
Procedure: as §3

HIF-1α = experiment: Intracellular signalling by Western blot: HIF-1α abundance; format: cell-based, human; conditions: serum-starved HEK293 cells, 100 μM, 10 or 30 min, vs. Basal
Procedure: as §3

AChE [5] = conditions: ref [47]; cited from earlier work
AChE [6] = conditions: ratio of literature Ki values from [47], [48],[49]
BChE = conditions: cited from earlier work
[7] = human, HEK293 cells, MTS assay, 6.25–800 µM, mean of at least three experiments with standard error

Sequence of human AChE (P22303 other isoform, or with tags, fused parts or gaps): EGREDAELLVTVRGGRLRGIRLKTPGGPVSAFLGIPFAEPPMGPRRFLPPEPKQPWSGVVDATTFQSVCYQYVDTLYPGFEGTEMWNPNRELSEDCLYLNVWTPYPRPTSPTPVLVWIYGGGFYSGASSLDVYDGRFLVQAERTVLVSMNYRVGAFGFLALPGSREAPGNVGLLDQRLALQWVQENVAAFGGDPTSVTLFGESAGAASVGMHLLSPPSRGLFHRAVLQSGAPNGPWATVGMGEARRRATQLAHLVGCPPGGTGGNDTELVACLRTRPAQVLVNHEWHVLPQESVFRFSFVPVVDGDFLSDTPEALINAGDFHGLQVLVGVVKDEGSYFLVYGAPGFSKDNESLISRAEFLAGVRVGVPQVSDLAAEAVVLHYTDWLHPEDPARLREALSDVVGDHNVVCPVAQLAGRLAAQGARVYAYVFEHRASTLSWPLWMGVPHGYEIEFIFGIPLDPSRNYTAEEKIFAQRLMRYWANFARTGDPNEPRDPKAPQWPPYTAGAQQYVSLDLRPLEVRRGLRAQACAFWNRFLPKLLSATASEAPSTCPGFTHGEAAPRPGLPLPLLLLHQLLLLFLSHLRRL
Sequence of human BChE (P06276 29-602): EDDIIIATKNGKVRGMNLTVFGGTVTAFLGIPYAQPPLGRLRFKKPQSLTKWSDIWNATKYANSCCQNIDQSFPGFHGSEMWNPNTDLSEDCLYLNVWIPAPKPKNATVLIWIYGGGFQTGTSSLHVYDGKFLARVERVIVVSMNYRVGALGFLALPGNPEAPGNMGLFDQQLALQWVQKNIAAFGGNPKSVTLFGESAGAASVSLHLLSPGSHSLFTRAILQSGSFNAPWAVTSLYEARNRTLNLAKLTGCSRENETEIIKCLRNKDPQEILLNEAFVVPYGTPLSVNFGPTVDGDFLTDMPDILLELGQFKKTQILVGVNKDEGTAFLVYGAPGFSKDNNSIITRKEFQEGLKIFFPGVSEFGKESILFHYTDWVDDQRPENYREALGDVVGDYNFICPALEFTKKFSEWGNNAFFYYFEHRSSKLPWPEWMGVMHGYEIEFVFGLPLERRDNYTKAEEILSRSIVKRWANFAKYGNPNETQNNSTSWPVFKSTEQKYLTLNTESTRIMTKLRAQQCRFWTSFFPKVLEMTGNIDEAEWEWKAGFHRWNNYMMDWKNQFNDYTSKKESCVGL

NC(=O)c1ccc[n+](CC(=O)c2ccccc2)c1 [Compound 1]
IC50 [1]: ≥ 800 µM | IC50 [2, 7]: ≤ 800 µM | Ki (human AChE): 79 ± 11 µM | Ki (AChE)/Ki (BChE) (human AChE): 0.34 | Ki (human BChE): 232 ± 20 µM

NC(=O)c1ccc[n+](CC(=O)c2ccc(F)cc2)c1 [Compound 2]
IC50 [1]: ≥ 800 µM | IC50 [2, 7]: ≥ 800 µM | Ki (human AChE): 85 ± 15 µM | Ki (AChE)/Ki (BChE) (human AChE): 0.14 | Ki (human BChE): 595 ± 73 µM

NC(=O)c1ccc[n+](CC(=O)c2ccc(Cl)cc2)c1 [Compound 3]
time dependence of cytotoxicity on SH-SY5Y cells (SH-SY5Y cells): time-dependent mechanism | IC50 [1]: ≤ 800 µM | time dependence of cytotoxicity on HEK293 cells (HEK293 cells): time-dependent mechanism | IC50 [2, 7]: ~85 µM | phosphorylation of AMPK (Thr172) (phospho-AMPK (Thr172)): did not respond | Ki (human AChE): 33 ± 5 µM | Ki (AChE)/Ki (BChE) (human AChE): 0.15 | phosphorylation of S6RP (Ser235/236) [3]: increased | Ki (human BChE): 224 ± 23 µM | phosphorylation of ERK1/2 (Thr202/Tyr204) [4]: tended to transiently increase | phosphorylation of ACC (Ser79) (phospho-ACC (Ser79)): did not respond | phosphorylation of Akt (Ser473) (phospho-Akt (Ser473)): suppressing | abundance of HIF-1α (HIF-1α): not statistically significant

NC(=O)c1ccc[n+](CC(=O)c2ccc(Br)cc2)c1 [Compound 4]
time dependence of cytotoxicity on SH-SY5Y cells (SH-SY5Y cells): time-dependent mechanism | IC50 [1]: 501 ± 2 µM | time dependence of cytotoxicity on HEK293 cells (HEK293 cells): time-dependent mechanism | IC50 (HEK293 cells; HEK293 cells, MTS assay, 6.25–800 µM, mean of at least three experiments with standard error): 83 ± 1 µM | IC50 [2, 7]: ~85 µM | phosphorylation of AMPK (Thr172) (phospho-AMPK (Thr172)): did not respond | Ki (human AChE): 11 ± 3 µM | Ki (AChE)/Ki (BChE) (human AChE): 0.23 | phosphorylation of S6RP (Ser235/236) [3]: increased | Ki (human BChE): 47 ± 15 µM | phosphorylation of ERK1/2 (Thr202/Tyr204) [4]: tended to transiently increase | phosphorylation of ACC (Ser79) (phospho-ACC (Ser79)): did not respond | phosphorylation of Akt (Ser473) (phospho-Akt (Ser473)): suppressing | abundance of HIF-1α (HIF-1α): increased

NC(=O)c1ccc[n+](CC(=O)c2ccc([N+](=O)[O-])cc2)c1 [Compound 5]
time dependence of cytotoxicity on SH-SY5Y cells (SH-SY5Y cells): time-dependent mechanism | IC50 [1]: 214 ± 5 µM | time dependence of cytotoxicity on HEK293 cells (HEK293 cells): time-dependent mechanism | IC50 [2, 7]: 417 ± 1 µM | phosphorylation of AMPK (Thr172) (phospho-AMPK (Thr172)): markedly increased | Ki (human AChE): 39 ± 5 µM | Ki (AChE)/Ki (BChE) (human AChE): 0.27 | phosphorylation of S6RP (Ser235/236) [3]: decreased | Ki (human BChE): 145 ± 24 µM | phosphorylation of ERK1/2 (Thr202/Tyr204) [4]: reached statistical significance; also recorded: marked increase | phosphorylation of ACC (Ser79) (phospho-ACC (Ser79)): markedly increased | phosphorylation of Akt (Ser473) (phospho-Akt (Ser473)): markedly pronounced | abundance of HIF-1α (HIF-1α): unaltered

Cc1ccc(C(=O)C[n+]2cccc(C(N)=O)c2)cc1 [Compound 6]
IC50 [1]: ≥ 800 µM | IC50 [2, 7]: ≤ 800 µM | Ki (human AChE): 3 ± 1 µM | preference for binding to AChE over BChE (human AChE; selectivity from Ki values): up to 80 times | Ki (AChE)/Ki (BChE) (human AChE): 0.01 | Ki (human BChE): 242 ± 22 µM

COc1ccc(C(=O)C[n+]2cccc(C(N)=O)c2)cc1 [Compound 7]
IC50 [1]: ≥ 800 µM | IC50 [2, 7]: ≥ 800 µM | Ki (human AChE): 19 ± 2 µM | Ki (AChE)/Ki (BChE) (human AChE): 0.08 | Ki (human BChE): 216 ± 34 µM

NC(=O)c1ccc[n+](CC(=O)c2ccc(-c3ccccc3)cc2)c1.[Br-] [Compound 8, 1-(4′-phenylphenacyl)-3-carbamoylpyridinium bromide]
time dependence of cytotoxicity on SH-SY5Y cells (SH-SY5Y cells): time-dependent mechanism | IC50 [1]: 257 ± 1 µM | IC50 ([2]; human; HEK293 cells, MTS assay, 6.25–800 µM, mean of at least three experiments with standard error): 155 ± 1 µM | phosphorylation of AMPK (Thr172) (phospho-AMPK (Thr172)): not significantly altered | Ki (human AChE): 4 ± 0.2 µM | Ki (AChE)/Ki (BChE) (human AChE): 0.50 | phosphorylation of S6RP (Ser235/236) [3]: unaltered | phosphorylation of ERK1/2 (Thr202/Tyr204) [4]: reached statistical significance; also recorded: marked increase | phosphorylation of ACC (Ser79) (phospho-ACC (Ser79)): increased phosphorylation | phosphorylation of Akt (Ser473) (phospho-Akt (Ser473)): markedly pronounced | abundance of HIF-1α (HIF-1α): increased

COc1ccccc1C(=O)C[n+]1cccc(C(N)=O)c1 [Compound 9]
IC50 [1]: ≥ 800 µM | IC50 [2, 7]: ≥ 800 µM | Ki (human AChE): 26 ± 4 µM | Ki (AChE)/Ki (BChE) (human AChE): 0.14 | Ki (human BChE): 180 ± 18 µM

CCN(CC)C(C)CN1c2ccccc2Sc2ccccc21 (stereo not drawn) [Ethopropazine]
Ki (AChE [5]): 161 µM | Ki (AChE)/Ki (BChE) (AChE [6]): 1010 | Ki (BChE; ref [47]): 0.16 µM
